Data taken from ChEMBL document CHEMBL3867432, “Autophagy regulates Selumetinib (AZD6244) induced-apoptosis in colorectal cancer cells” (Eur J Med Chem, 2016).
Active and inactive are the calls of the source. The rule behind the calls is not given here.

Key:
SW480 [1] = assay: Induction of apoptosis in human SW480 cells assessed as necrotic cells at 10 uM after 48 hrs by annexin V-FITC/propidium iodide staining based flow cytometry (reference value: 2.8%); type: functional
[2] = Cell cycle arrest in human SW480 cells after 48 hrs by propidium iodide staining based flow cytometry; type: functional
SW480 [3] = assay: Induction of apoptosis in human SW480 cells assessed as apoptotic cells at 1 uM after 48 hrs by annexin V-FITC/propidium iodide staining based flow cytometry (reference value: 10.6%); type: functional
[4] = Cell cycle arrest in human SW480 cells assessed as accumulation at G1 phase at 10 uM after 48 hrs by propidium iodide staining based flow cytometry (reference value: 61.2%); type: functional
SW480 [5] = assay: Induction of apoptosis in human SW480 cells assessed as accumulation at subG1 phase at 10 uM after 48 hrs in presence of pan caspase inhibitor zVAD by Annexin-V-FITC/propidium iodide staining based flow cytometry (reference value: 15.3%); type: functional
[6] = Cell cycle arrest in human SW480 cells assessed as accumulation at subG1 phase at 1 uM after 48 hrs by propidium iodide staining based flow cytometry (reference value: 5.7%); type: functional
[7] = Cell cycle arrest in human SW480 cells assessed as accumulation at G1 phase at 1 uM after 48 hrs by propidium iodide staining based flow cytometry (reference value: 61.2%); type: functional
HT-29 [8] = assay: Induction of apoptosis in human HT-29 cells assessed as apoptotic cells at 10 uM after 48 hrs in presence of autophagy inhibitor CQ by annexin V-FITC/propidium iodide staining based flow cytometry (reference value: 15.7 to 19.6%); type: functional
SW480 [9] = assay: Induction of autophagy in human SW480 cells assessed as increase in LC3-2 level at 10 uM after 1 to 4 hrs by Western blot analysis; type: functional, cell-based
SW480 [10] = assay: Induction of apoptosis in human SW480 cells assessed as apoptotic cells at 3 uM after 48 hrs by annexin V-FITC/propidium iodide staining based flow cytometry (reference value: 10.6%); type: functional
SW480 [11] = assay: Induction of apoptosis in human SW480 cells assessed as apoptotic cells at 10 uM after 48 hrs in presence of autophagy inhibitor CQ by annexin V-FITC/propidium iodide staining based flow cytometry (reference value: 9.6 to 15.3%); type: functional
SW480 [12] = assay: Induction of apoptosis in beclin-1 silenced human SW480 cells assessed as apoptotic cells at 10 uM after 48 hrs by annexin V-FITC/propidium iodide staining based flow cytometry (reference value: 14.4%); type: functional
SW480 [13] = assay: Induction of apoptosis in human SW480 cells assessed as accumulation at subG1 phase at 10 uM after 48 hrs in presence of autophagy inducer rapamycin by propidium iodide staining based flow cytometry (reference value: 5.7 to 15.3%); type: functional
HT-29 [14] = assay: Induction of apoptosis in human HT-29 cells assessed as apoptotic cells at 10 uM after 48 hrs in presence of autophagy inhibitor bafilomycin A1 by annexin V-FITC/propidium iodide staining based flow cytometry (reference value: 15.7 to 19.6%); type: functional
SW480 [15] = assay: Induction of apoptosis in human SW480 cells assessed as apoptotic cells at 10 uM after 48 hrs in presence of autophagy inhibitor 3-MA by annexin V-FITC/propidium iodide staining based flow cytometry (reference value: 9.6 to 15.3%); type: functional
[16] = Antiproliferative activity against human SW480 cells after 72 hrs by MTT assay; type: functional, cell-based; settings: SW480, 72 h
[17] = Cell cycle arrest in human SW480 cells assessed as accumulation at G1 phase at 3 uM after 48 hrs by propidium iodide staining based flow cytometry (reference value: 61.2%); type: functional
SW480 [18] = assay: Induction of apoptosis in human SW480 cells assessed as apoptotic cells at 10 uM after 48 hrs in presence of autophagy inhibitor bafilomycin A1 by annexin V-FITC/propidium iodide staining based flow cytometry (reference value: 9.6 to 15.3%); type: functional
HT-29 [19] = assay: Induction of apoptosis in human HT-29 cells assessed as apoptotic cells at 10 uM after 48 hrs by annexin V-FITC/propidium iodide staining based flow cytometry (reference value: 15.7 to 19.6%); type: functional
SW480 [20] = assay: Induction of apoptosis in human SW480 cells assessed as apoptotic cells at 10 uM after 48 hrs by annexin V-FITC/propidium iodide staining based flow cytometry (reference value: 9.6 to 15.3%); type: functional
SW480 [21] = assay: […] of autophagy in human SW480 cells expressing mCherry-eGFPeLC3 assessed as accumulation of autophagosomes at 10 uM after 2 hrs by confocal microscopic analysis; type: functional, cell-based
SW480 [22] = assay: Induction of apoptosis in human SW480 cells assessed as increase in LC3-2 level at 10 uM after 48 hrs in presence of autophagy inhibitor bafilomycin A1 by Western blot analysis; type: functional, cell-based
SW480 [23] = assay: Induction of apoptosis in human SW480 cells assessed as apoptotic cells at 10 uM after 48 hrs in presence of autophagy inducer rapamycin by annexin V-FITC/propidium iodide staining based flow cytometry (reference value: 9.6 to 15.3%); type: functional
[24] = Cell cycle arrest in human SW480 cells assessed as accumulation at subG1 phase at 10 uM after 48 hrs by propidium iodide staining based flow cytometry (reference value: 5.7 to 15.3%); type: functional
[25] = Cell cycle arrest in human SW480 cells assessed as accumulation at subG1 phase at 3 uM after 48 hrs by propidium iodide staining based flow cytometry (reference value: 5.7%); type: functional
SW480 [26] = assay: Induction of apoptosis in human SW480 cells assessed as necrotic cells at 1 uM after 48 hrs by annexin V-FITC/propidium iodide staining based flow cytometry (reference value: 2.8%); type: functional
SW480 [27] = assay: Induction of apoptosis in human SW480 cells assessed as necrotic cells at 3 uM after 48 hrs by annexin V-FITC/propidium iodide staining based flow cytometry (reference value: 2.8%); type: functional
SW480 [28] = assay: Induction of apoptosis in human SW480 cells after 48 hrs by annexin V-FITC/propidium iodide staining based flow cytometry; type: functional, cell-based

SMILES: Cn1cnc2c(F)c(Nc3ccc(Br)cc3Cl)c(C(=O)NOCCO)cc21 [SELUMETINIB]
- Activity (SW480 [1]): 5.3%
- Activity [2]: Dose-dependent effect
- Activity (SW480 [3]): 17.4%
- Activity [4]: 58%
- Activity (SW480 [5]): 24.1%
- Activity [6]: 10%
- Activity [7]: 75%
- Activity (HT-29 [8]): 58.6%
- Activity (SW480 [9]): Active
- Activity (SW480 [10]): 23.1%
- Activity (SW480 [11]): 55.4%
- Activity (SW480 [12]): 53.3%
- Activity (SW480 [13]): 11.9%
- Activity (HT-29 [14]): 68.3%
- Activity (SW480 [15]): 41.1%
- IC50 [16]: 422 nM
- Activity [17]: 59.6%
- Activity (SW480 [18]): 64.9%
- Activity (HT-29 [19]): 43.9 - 51.2%
- Activity (SW480 [20]): 29 - 42.9%
- inhibition (SW480 [21]): Active
- Activity (SW480 [22]): Active
- Activity (SW480 [23]): 21.4%
- Activity [24]: 23.7 to 42.9%
- Activity [25]: 17.8%
- Activity (SW480 [26]): 4.2%
- Activity (SW480 [27]): 4.9%
- Activity (SW480 [28]): Dose-dependent effect
